Experimental data taken from paper PMC11562494 (BMC Chemistry, 2024).
≈ marks a conversion by molar mass, not a printed value. Where “and” joins values, the source holds several entries; their conditions need not be identical. Identical values can stand only once. Like-named read-outs stand apart in the source and are kept apart here.

Assays:
C. albicans [1] = conditions: cited from earlier work
Aspergillus fumigatus = conditions: cited from earlier work
E. coli [2] = conditions: cited from earlier work
Pseudomonas aeruginosa = conditions: cited from earlier work
Escherichia coli = conditions: cited from earlier work
WI38 cells [3] = conditions: read-out: WI-38 IC50 ± SD; normal WI38 cells, MTT; cited from earlier work
S. aureus [4] = conditions: cited from earlier work
C. albicans [5] = test: Broth dilution MIC/MFC; assay type: cell-based, Candida albicans
S. cerevisiae = test: Broth dilution MIC/MFC; assay type: cell-based, Saccharomyces cerevisiae
WI38 cells [6] = test: In vitro cytotoxicity MTT assay; conditions: Homo sapiens, WI-38, 48 h, read-out: WI-38 IC50 ± SD
DNA gyrase A = DNA gyrase A (Escherichia coli, UniProt P0AES4); test: DNA gyrase supercoiling assay; assay type: biochemical; conditions: IC50 ± SD DNA gyrase A, E. coli DNA gyrase supercoiling
DNA gyrase A, sequence (P0AES4 whole entry): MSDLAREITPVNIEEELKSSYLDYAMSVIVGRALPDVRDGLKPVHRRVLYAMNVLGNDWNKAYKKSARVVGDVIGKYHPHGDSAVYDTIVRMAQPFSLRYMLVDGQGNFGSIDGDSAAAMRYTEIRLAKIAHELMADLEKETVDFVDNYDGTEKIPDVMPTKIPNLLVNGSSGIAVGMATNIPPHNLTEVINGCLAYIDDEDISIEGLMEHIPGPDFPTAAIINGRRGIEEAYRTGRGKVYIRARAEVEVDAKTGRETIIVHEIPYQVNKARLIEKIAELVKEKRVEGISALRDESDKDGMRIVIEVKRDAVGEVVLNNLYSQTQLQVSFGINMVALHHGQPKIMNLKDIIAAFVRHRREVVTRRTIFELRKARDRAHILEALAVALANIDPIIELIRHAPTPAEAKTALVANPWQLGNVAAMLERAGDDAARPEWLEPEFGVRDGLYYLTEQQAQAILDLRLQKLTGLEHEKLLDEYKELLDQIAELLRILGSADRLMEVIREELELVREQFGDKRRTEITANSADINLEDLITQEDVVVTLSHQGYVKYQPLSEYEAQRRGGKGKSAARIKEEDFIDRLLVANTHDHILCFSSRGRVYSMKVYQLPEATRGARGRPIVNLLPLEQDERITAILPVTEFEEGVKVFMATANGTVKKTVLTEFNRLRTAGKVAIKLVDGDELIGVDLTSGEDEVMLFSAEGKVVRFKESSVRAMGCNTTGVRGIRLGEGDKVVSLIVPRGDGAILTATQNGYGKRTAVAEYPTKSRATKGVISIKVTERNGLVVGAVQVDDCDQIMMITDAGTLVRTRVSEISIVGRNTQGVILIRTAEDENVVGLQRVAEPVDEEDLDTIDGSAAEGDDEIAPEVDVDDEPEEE

E. coli [7] = test: Broth dilution MIC/MBC; assay type: cell-based, Escherichia coli
E. cloacae = test: Broth dilution MIC/MBC; assay type: cell-based, Enterobacter cloacae
S. faecalis = test: Broth dilution MIC/MBC; assay type: cell-based, Streptococcus faecalis
B. pumilus = test: Broth dilution MIC/MBC; assay type: cell-based, Bacillus pumilus
E. coli [8] = test: Time-kill kinetic test; assay type: cell-based; conditions: 1x MIC
[9] = system: methicillin-resistant S. aureus; conditions: cited from earlier work
B. subtilis = conditions: cited from earlier work
S. aureus [10] = conditions: cited from earlier work; remark: listed apart in the source

In the case of C[C@@H]1[C@H](O)[C@@H](C)/C=C/C=C/C=C/C=C/C=C/C=C/C=C/[C@H](O[C@@H]2O[C@H](C)[C@@H](O)[C@H](N)[C@@H]2O)C[C@@H]2O[C@](O)(C[C@@H](O)C[C@@H](O)[C@H](O)CC[C@@H](O)C[C@@H](O)CC(=O)O[C@H]1C)C[C@H](O)[C@H]2C(=O)O [amphotericin B], the “MIC C. albicans” value (C. albicans [1]) is listed as 1.95 µg/mL (≈ 2.11 µM) and the “MIC Aspergillus fumigatus” value (Aspergillus fumigatus) is listed as 1.95 µg/mL (≈ 2.11 µM).

In the case of CC1(C)S[C@@H]2[C@H](NC(=O)[C@H](N)c3ccc(O)cc3)C(=O)N2[C@H]1C(=O)O [amoxicillin], the “MIC E. coli” value (E. coli [2]) is given as 0.01 µM (≈ 3.65 ng/mL).

In the case of [H]/N=C(/N)N[C@H]1[C@H](O)[C@@H](O)[C@H](O[C@@H]2O[C@@H](C)[C@](O)(C=O)[C@H]2O[C@@H]2O[C@@H](CO)[C@H](O)[C@@H](O)[C@@H]2NC)[C@@H](N/C(N)=N\[H])[C@@H]1O [streptomycin], the “IZ Pseudomonas aeruginosa” value (Pseudomonas aeruginosa) is given as 24 mm and the “IZ E. coli” value (Escherichia coli) is given as 25 mm.

For O=C(O)c1cn(C2CC2)c2cc(N3CCNCC3)c(F)cc2c1=O [Cipro., ciprofloxacin], the IC50 (WI38 cells [3]) is listed as 23.9 ± 1.58 µM and the “IZ S. aureus” value (S. aureus [4]) is listed as 22 mm.

For CC(=O)Oc1ccc(-c2c(C(N)=O)c(N)n(N)c(=O)c2C#N)cc1 [Compound 3e, 4-(1,6-diamino-5-carbamoyl-3-cyano-2-oxo-1,2-dihydropyridin-4-yl)phenyl acetate], the “MFC/ MIC ratio C. albicans” value (C. albicans [5]) was 2, the MFC (C. albicans [5]; Candida albicans, read-out: MFC C. albicans) was 125 µg/mL and the MIC (C. albicans [5]; Candida albicans, read-out: MIC C. albicans, broth dilution) was 62.5 µg/mL. For the same compound, the “MFC/ MIC ratio S. cerevisiae” value (S. cerevisiae) was 2, the MFC (S. cerevisiae; Saccharomyces cerevisiae, read-out: MFC S. cerevisiae) was 125 µg/mL and the MIC (S. cerevisiae; Saccharomyces cerevisiae, read-out: MIC S. cerevisiae) was 62.5 µg/mL. The IC50 (WI38 cells [6]) was 43.2 ± 1.7 µM, the IC50 (DNA gyrase A) was 11.5 µM and the “MBC/ MIC ratio E. coli” value (E. coli [7]) was 4. For the same compound, the MBC (E. coli [7]; Escherichia coli, read-out: MBC E. coli) was 15.6 µg/mL, the MIC (E. coli [7]; Escherichia coli, read-out: MIC E. coli) was 3.91 µg/mL and the “MBC/ MIC ratio E. cloacae” value (E. cloacae) was 4. The MBC (E. cloacae; Enterobacter cloacae, read-out: MBC E. cloacae) was 62.5 µg/mL, the MIC (E. cloacae; Enterobacter cloacae, read-out: MIC E. cloacae) was 15.6 µg/mL and the “MBC/ MIC ratio S. faecalis” value (S. faecalis) was 2. The MBC (S. faecalis; Enterococcus faecalis, read-out: MBC S. faecalis) was 62.5 µg/mL, the MIC (S. faecalis; Enterococcus faecalis, read-out: MIC S. faecalis) was 31.3 µg/mL and the “MBC/ MIC ratio B. pumilus” value (B. pumilus) was 2. For the same compound, the MBC (B. pumilus; Bacillus pumilus, read-out: MBC B. pumilus) was 125 µg/mL, the MIC (B. pumilus; Bacillus pumilus, read-out: MIC B. pumilus) was 62.5 µg/mL and the “Time to bactericidal activity against E. coli” value (E. coli [8]) was 90 to 120 min and 120 min.

For CN[C@H](CC(C)C)C(=O)N[C@H]1C(=O)N[C@@H](CC(N)=O)C(=O)N[C@H]2C(=O)N[C@H]3C(=O)N[C@H](C(=O)N[C@H](C(=O)O)c4cc(O)cc(O)c4-c4cc3ccc4O)[C@H](O)c3ccc(c(Cl)c3)Oc3cc2cc(c3O[C@@H]2O[C@H](CO)[C@@H](O)[C@H](O)[C@H]2O[C@H]2C[C@](C)(N)[C@H](O)[C@H](C)O2)Oc2ccc(cc2Cl)[C@H]1O [vancomycin], the “MIC methicillin-resistant S. aureus” value [9] is listed as 1 µg/mL (≈ 0.69 µM).

In the case of N[C@@H](C(=O)N[C@@H]1C(=O)N2C(C(=O)O)=C(Cl)CS[C@H]12)c1ccccc1 [cefaclor], the “MIC B. subtilis” value (B. subtilis) is listed as 2.4 µg/mL (≈ 6.53 µM) and the “MIC S. aureus” value (S. aureus [10]) is listed as 2.4 µg/mL (≈ 6.53 µM).
